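Briefly, cells in 96-well plates were exposed to five compound concentrations for 48 h, and endpoints were estimated by linear interpolation. At the GI50, growth is halved.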 Calls of active or inactive are those of the source. Rule as the data show it: active = GI50 up to about 1.1 µM and inactive = higher.
Legend:
Assay in all cases: DTP human tumour cell line panel, 48 h
SNB-19 = test system: SNB-19
Malme-3M = test system: Malme-3M
NCI-H23 = test system: NCI-H23
RXF 393 = test system: RXF 393
MOLT-4 = test system: MOLT-4
CCRF-CEM = test system: CCRF-CEM
HCC 2998 = test system: HCC 2998
786-0 = test system: 786-0
TK-10 = test system: TK-10
A549 = test system: A549
NCI-H460 = test system: NCI-H460
OVCAR-4 = test system: OVCAR-4
OVCAR-3 = test system: OVCAR-3
LOX IMVI = test system: LOX IMVI
MDA-MB-231 = test system: MDA-MB-231
HT-29 = test system: HT-29
UO-31 = test system: UO-31
KM12 = test system: KM12
SK-OV-3 = test system: SK-OV-3
HL-60 = test system: HL-60

SMILES	GI50 (SNB-19)	GI50 (Malme-3M)	GI50 (NCI-H23)	GI50 (RXF 393)	GI50 (MOLT-4)	GI50 (CCRF-CEM)	GI50 (HCC 2998)	GI50 (786-0)	GI50 (TK-10)	GI50 (A549)	GI50 (NCI-H460)	GI50 (OVCAR-4)	GI50 (OVCAR-3)	GI50 (LOX IMVI)	GI50 (MDA-MB-231)	GI50 (HT-29)	GI50 (UO-31)	GI50 (KM12)	GI50 (SK-OV-3)	GI50 (HL-60)
COc1cc2c(cc1O)NC(=O)[C@@H]1CCCN1C2=O	> 100 µM (inactive)	> 100 µM (inactive)	> 100 µM (inactive)	> 100 µM (inactive)	> 100 µM (inactive)	> 100 µM (inactive)	> 100 µM (inactive)	> 100 µM (inactive)	> 100 µM (inactive)	> 100 µM (inactive)	> 100 µM (inactive)	> 100 µM (inactive)	> 100 µM (inactive)	> 100 µM (inactive)	> 100 µM (inactive)	> 100 µM (inactive)	> 100 µM (inactive)	> 100 µM (inactive)	> 100 µM (inactive)	–
COc1cc(C)c(S(=O)(=O)N(CCCN)OCCCN)c(C)c1C	42 µM (inactive)	21.9 µM (inactive)	31.1 µM (inactive)	15.6 µM (inactive)	13 µM (inactive)	41.2 µM (inactive)	16.6 µM (inactive)	45.6 µM (inactive)	34 µM (inactive)	68.5 µM (inactive)	47.1 µM (inactive)	> 100 µM (inactive)	61.9 µM (inactive)	27.8 µM (inactive)	25.5 µM (inactive)	46.5 µM (inactive)	41.5 µM (inactive)	40.8 µM (inactive)	> 100 µM (inactive)	–
C=CCn1c(-c2ccc(/N=N/Nc3ccc(-c4n[nH]c(=S)n4CC=C)cc3)cc2)n[nH]c1=S	27 µM (inactive)	3.57 µM (inactive)	3.22 µM (inactive)	13.9 µM (inactive)	2.01 µM (inactive)	3.13 µM (inactive)	–	8.41 µM (inactive)	11.8 µM (inactive)	3.52 µM (inactive)	–	2.53 µM (inactive)	2.52 µM (inactive)	3.4 µM (inactive)	22 µM (inactive)	–	1.83 µM (inactive)	3.04 µM (inactive)	11.7 µM (inactive)	–
CN(C)C1C(CO)OC(n2cnc3c(N)ncnc32)C1O (configuration not stated)	> 100 µM (inactive)	–	> 100 µM (inactive)	–	> 100 µM (inactive)	> 100 µM (inactive)	–	> 100 µM (inactive)	> 100 µM (inactive)	> 100 µM (inactive)	> 100 µM (inactive)	> 100 µM (inactive)	> 100 µM (inactive)	> 100 µM (inactive)	> 100 µM (inactive)	> 100 µM (inactive)	> 100 µM (inactive)	> 100 µM (inactive)	> 100 µM (inactive)	> 100 µM (inactive)
FC(F)(F)c1ccc(C2=N/S(c3ccccc3)=N\C(c3ccc(C(F)(F)F)cc3)=N/S(c3ccccc3)=N\2)cc1 (configuration not stated)	> 100 µM (inactive)	> 100 µM (inactive)	> 100 µM (inactive)	> 100 µM (inactive)	> 100 µM (inactive)	> 100 µM (inactive)	> 100 µM (inactive)	80 µM (inactive)	> 100 µM (inactive)	> 100 µM (inactive)	> 100 µM (inactive)	> 100 µM (inactive)	> 100 µM (inactive)	> 100 µM (inactive)	> 100 µM (inactive)	> 100 µM (inactive)	> 100 µM (inactive)	> 100 µM (inactive)	> 100 µM (inactive)	–
C=C[C@]1(C)CCC2=C(CCC3C2(C)CCC[C@]3(C)CO)C1 (some centres not stated)	> 100 µM (inactive)	> 100 µM (inactive)	50.4 µM (inactive)	25.8 µM (inactive)	24.3 µM (inactive)	33 µM (inactive)	43.7 µM (inactive)	59.8 µM (inactive)	> 100 µM (inactive)	40.6 µM (inactive)	35.1 µM (inactive)	> 100 µM (inactive)	40 µM (inactive)	27.7 µM (inactive)	–	24.1 µM (inactive)	74 µM (inactive)	38.4 µM (inactive)	> 100 µM (inactive)	27.9 µM (inactive)
O=C1C(Cl)=C(NCCN2CCOCC2)C(=O)c2ncccc21	1.69 µM (inactive)	1.71 µM (inactive)	1.62 µM (inactive)	1.95 µM (inactive)	1.51 µM (inactive)	0.394 µM (active)	1.47 µM (inactive)	1.44 µM (inactive)	1.96 µM (inactive)	2 µM (inactive)	1.46 µM (inactive)	–	1.6 µM (inactive)	1.01 µM (active)	2.08 µM (inactive)	2.96 µM (inactive)	1.65 µM (inactive)	1.73 µM (inactive)	1.95 µM (inactive)	–

— ChEMBL document CHEMBL1201862, “PubChem BioAssay data set” (2004)
